From article PMC9138599, “Clade-Specific Alterations within the HIV-1 Capsid Protein with Implications for Nuclear Translocation” (Biomolecules, 2022)
Where two headings read alike, the source gives them in different places.

Columns and labels:
[1] = target: HIV-1 CA hexamer from clade C (92BR025.8) (Human immunodeficiency virus type 1 group M subtype C, UniProt O12157, E175C/M315A/P144C/W314A); assay: SPR binding to immobilized HIV-1 CA hexamer, clade C
[2] = test system: HIV-1 CA hexamer from clade A1 (92UG037.1); assay type: binding; conditions: SPR
[3] = test system: HIV-1 CA hexamer from clade A2 (CDKTB48); assay type: binding; conditions: SPR
[4] = target: HIV-1 CA hexamer from clade B (NL4-3) (Human immunodeficiency virus type 1 group M subtype B, UniProt P12493, A146C/E177C/M317A/W316A); assay: SPR binding to immobilized HIV-1 CA hexamer, clade B
[5] = test system: HIV-1 CA hexamer from clade D (94UG114.1); assay type: binding; conditions: SPR
[6] = test system: monomeric HIV-1 CA protein, clade A1 (92UG037.1); assay: In vitro CA assembly (turbidity) assay, clade A1; assay type: biochemical; conditions: 3 M NaCl
Method: (§1) In vitro assembly of the monomeric HIV-1 CA proteins was performed using a modification of the standard CA turbidity assembly assay [62, 63, 64, 65, 66]. This assay relies upon the fact that the addition of high salt to HIV-1 CA protein causes self-assembly that can be monitored and quantified as the increase in turbidity over time, as described in Kortagere et al. [61, 67]. Briefly, 75 µL of buffer was prepared, containing a final concentration of 50 mM NaH2PO4 pH 8.0 and various concentrations (1–5 M) of NaCl to assess the optimal concentration of salt needed to initiate assembly after the addition of the purified clade variants. To initiate the assembly reaction, 25 µL of 120 µM purified capsid was added to a final CA concentration of 30 µM (including matching DMSO concentrations). In the presence of compounds, the in vitro reaction contained 50 mM NaH2PO4 pH 8.0, 30 µM CA protein, 50 µM inhibitor, 3% DMSO, and 3 M NaCl. Readings were then taken at 350 nm every 30 s for 20 min to measure the increase in turbidity over time. The OD at 350 nm over the first 2 min was then plotted and fit with a linear regression to calculate the initial velocity (AU/min) of CA assembly.

[7] = test system: monomeric HIV-1 CA protein, clade A2 (CDKTB48); assay: In vitro CA assembly (turbidity) assay, clade A2; assay type: biochemical; conditions: 3 M NaCl
Method: as §1

[8] = target: T1, monomeric HIV-1 CA protein, clade C (92BR025.8) (Human immunodeficiency virus type 1 group M subtype C, UniProt O12157); assay: In vitro CA assembly (turbidity) assay, clade C; assay type: biochemical; conditions: clade C CA 30 µM, 50 µM inhibitor, 3 M NaCl, first 120 s, n = 3
T1 construct: hexahistidine (C); made in house; host or cells: E. coli BL21 (DE3) RIL
Method: as §1

[9] = test system: monomeric HIV-1 CA protein, clade D (94UG114.1); assay: In vitro CA assembly (turbidity) assay, clade D; assay type: biochemical; conditions: clade D CA 30 µM, 50 µM inhibitor, 3 M NaCl, first 120 s, n = 3
Method: as §1

[10] = target: monomeric HIV-1 CA protein, clade B (NL4-3) (Human immunodeficiency virus type 1 group M subtype B, UniProt P12493)
Method: as §1

[11] = target: tri-hexameric interface of CA hexamers; parameters: method as in PMID 34835048; conditions: RRR patch binding into tri-hexameric interface; cited from earlier work
[12] = global fit, n = 3, read-out: KD Kinetic/Global
[13] = Langmuir isotherm equilibrium fit, 25 °C, n = 3, read-out: KD Equilibrium
[14] = SPR, clade B (NL4.3) hexamer, 1:1 binding model, n = 3

HIV-1 CA hexamer from clade C (92BR025.8), sequence (O12157 131-361 P144C/E175C/W314A/M315A): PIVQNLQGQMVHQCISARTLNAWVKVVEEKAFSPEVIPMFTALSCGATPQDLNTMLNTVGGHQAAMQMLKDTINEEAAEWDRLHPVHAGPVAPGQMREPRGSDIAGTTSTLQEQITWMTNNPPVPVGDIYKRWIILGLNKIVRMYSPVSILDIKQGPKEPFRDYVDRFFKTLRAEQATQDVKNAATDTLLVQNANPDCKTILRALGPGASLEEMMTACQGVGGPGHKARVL
T1 sequence (O12157 131-361): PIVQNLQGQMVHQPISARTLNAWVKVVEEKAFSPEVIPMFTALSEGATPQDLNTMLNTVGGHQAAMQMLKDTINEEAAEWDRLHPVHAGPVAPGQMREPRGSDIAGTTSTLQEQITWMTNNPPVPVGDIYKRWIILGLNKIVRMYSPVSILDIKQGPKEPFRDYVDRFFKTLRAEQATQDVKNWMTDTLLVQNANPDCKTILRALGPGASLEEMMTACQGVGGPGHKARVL

CC(C)[C@H](NC(=O)CNC(=O)[C@H](CO)NC(=O)[C@@H]1CCCN1C(=O)[C@H](CO)NC(=O)[C@H](CC(N)=O)NC(=O)[C@H](CC(N)=O)NC(=O)[C@@H](N)[C@@H](C)O)C(=O)N[C@@H](Cc1ccccc1)C(=O)N[C@H](C(=O)N[C@@H](Cc1ccccc1)C(=O)NCC(=O)N[C@@H](C)C(=O)N[C@@H](CC(N)=O)C(=O)N[C@@H](CO)C(=O)N[C@@H](CO)C(=O)N[C@H](C(=O)O)[C@@H](C)O)[C@@H](C)O [NUP-153]
Kd ([1]; Langmuir isotherm equilibrium fit, n = 3, read-out: KD Equilibrium): 503000 nM
Kd [1, 12]: 881000 nM

PF-74
koff ([2]; 1:1 binding model, n = 3): 0.647 s⁻¹
kon ([2]; 1:1 binding model, n = 3): 615000 M⁻¹ s⁻¹
Kd [2, 13]: 716 nM
Kd [2, 12]: 946 nM
koff ([3]; 1:1 binding model, n = 3): 0.0916 s⁻¹
kon ([3]; 1:1 binding model, n = 3): 669000 M⁻¹ s⁻¹
Kd [3, 13]: 138 nM
Kd [3, 12]: 139 nM
fold tighter binding to clade B protein compared to clade A1 protein ([4]; SPR data, clade B vs clade A1): ~ 20 fold
koff [4, 14]: 0.0363 s⁻¹
kon [4, 14]: 756000 M⁻¹ s⁻¹
koff ([1]; 1:1 binding model, n = 3): 0.0754 s⁻¹
kon ([1]; 1:1 binding model, n = 3): 228000 M⁻¹ s⁻¹
Kd [1, 13]: 354 nM
Kd [1, 12]: 330 nM
koff ([5]; 1:1 binding model, n = 3): 0.0395 s⁻¹
kon ([5]; 1:1 binding model, n = 3): 773000 M⁻¹ s⁻¹
Kd [5, 13]: 51 nM
Kd [5, 12]: 51 nM
fold increase in assembly rate (initial velocity) vs Apo ([6]; clade A1, 50 µM inhibitor, initial 120 s): 1.5 fold
Initial Velocity PF-74 ([6]; clade A1 CA 30 µM, 50 µM inhibitor, first 120 s, n = 3): 0.034 ± 0.001 AU/min
fold increase in assembly rate (initial velocity) vs Apo ([7]; clade A2, 50 µM inhibitor, initial 120 s): 1.3 fold
Initial Velocity PF-74 ([7]; clade A2 CA 30 µM, 50 µM inhibitor, first 120 s, n = 3): 0.017 ± 0.002 AU/min
Initial Velocity PF-74 [8]: 0.039 ± 0.007 AU/min
Initial Velocity PF-74 [9]: 0.050 ± 0.008 AU/min
Initial Velocity PF-74 [10]: 0.043 ± 0.009 AU/min

RRR patch: highly positively charged RRR motif at the C-terminus of NUP-153 binding the tri-hexameric interface of CA (FSGRKIKTAVRRRK; UniProt P49790 1462-1475, looked up, fragment)
Kd [11]: 800 nM
